According to US20080009418A1, “Selective Inhibitors” (Alchemia LTD., priority 2004, published 2008):

Legend:
Human melanocortin (MC5) = target: T1, Human melanocortin (MC5) (Homo sapiens, UniProt P33032); test: Radioligand binding, human melanocortin MC5 membranes, FlashPlate, [125I]-NDP-αMSH; conditions: compound at 10 μM; [125I]-NDP-αMSH
T1 construct: purchased Perkin Elmer Biosignal
Procedure, shortened: (§1)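 Cloned human receptor membranes were coated onto FlashPlate wells and incubated with radioligand and compound (added from a 0.5 mM DMSO daughter plate) for 1 hour at room temperature in the dark. Scintillation counting gave percent inhibition, with DMSO defining total and reference ligand defining non-specific binding.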

Human Melanocortin (MC4) = target: T2, Human Melanocortin (MC4) (Homo sapiens, UniProt P32245); test: Radioligand binding, human melanocortin MC4 membranes, FlashPlate, [125I]-NDP-αMSH; conditions: compound at 10 μM; [125I]-NDP-αMSH
T2 construct: purchased Perkin Elmer Biosignal
Procedure, shortened: as §1

Human κ-Opioid (KOP) = target: T3, Human κ-Opioid (KOP) (Homo sapiens, UniProt P41145); test: Radioligand binding, human κ-opioid (KOP) membranes, filtration, [3H]-Diprenorphine; conditions: compound at 10 μM; [3H]-Diprenorphine
T3 construct: purchased Perkin Elmer Biosignal
Procedure, shortened: (§2)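 Percent inhibition of radioligand binding measured on recombinant human membranes: NK1 with [125I]-Substance P, KOP with [3H]-Diprenorphine. Incubation 1 h at room temperature, then harvest onto 0.3% PEI-soaked filters, cold Tris-HCl pH 7.4 washes and scintillation counting; non-specific binding from reference ligand wells.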

[1] = target: T4, Human neuropeptide Y (NPY-Y1) (Homo sapiens, UniProt P25929); test: Radioligand binding, human neuropeptide Y NPY-Y1 membranes, FlashPlate, [125I]-PYY; conditions: compound at 10 μM; [125I]-PYY
T4 construct: purchased Perkin Elmer Biosignal
T4 sequence (P25929 1-384): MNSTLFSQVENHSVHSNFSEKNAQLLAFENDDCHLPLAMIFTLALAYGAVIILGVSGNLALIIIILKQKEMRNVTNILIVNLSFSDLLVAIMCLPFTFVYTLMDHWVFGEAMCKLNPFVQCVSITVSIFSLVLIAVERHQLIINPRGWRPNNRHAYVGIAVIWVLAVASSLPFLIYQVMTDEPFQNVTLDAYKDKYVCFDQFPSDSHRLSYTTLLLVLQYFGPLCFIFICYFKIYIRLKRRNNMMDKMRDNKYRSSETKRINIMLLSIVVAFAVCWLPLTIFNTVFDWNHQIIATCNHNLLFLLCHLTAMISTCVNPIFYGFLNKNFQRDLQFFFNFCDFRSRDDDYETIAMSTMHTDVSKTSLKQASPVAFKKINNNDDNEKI
Procedure, shortened: as §1

Human Melanocortin (MC3) = target: T5, Human Melanocortin (MC3) (Homo sapiens, UniProt P41968); test: Radioligand binding, human melanocortin MC3 membranes, FlashPlate, [125I]-NDP-αMSH; conditions: compound at 10 μM; [125I]-NDP-αMSH
T5 construct: purchased Perkin Elmer Biosignal
Procedure, shortened: as §1

Human neurokinin (NK1) = target: T6, Human neurokinin (NK1) (Homo sapiens, UniProt P25103); test: Radioligand binding, human neurokinin NK1 membranes, filtration, [125I]-Substance P; conditions: compound at 10 μM; [125I]-Substance P
T6 construct: purchased Perkin Elmer Biosignal
Procedure, shortened: as §2

Human μ-opioid (MOP) = target: T7, Human μ-opioid (MOP) (Homo sapiens, UniProt P35372); test: Radioligand binding, human μ-opioid (MOP) membranes, FlashPlate, [3H]-Naloxone; conditions: compound at 10 μM; [3H]-Naloxone
T7 construct: purchased Perkin Elmer Biosignal
Procedure, shortened: as §1

Human δ-opioid (DOP) = target: T8, Human δ-opioid (DOP) (Homo sapiens, UniProt P41143); test: Radioligand binding, human δ-opioid (DOP) membranes, FlashPlate, [3H]-Bremazocine; conditions: compound at 10 μM; [3H]-Bremazocine
T8 construct: purchased Perkin Elmer Biosignal
Procedure, shortened: as §1

Human opioid (ORL1) = target: T9, Human opioid (ORL1) (Homo sapiens, UniProt P41146); test: Radioligand binding, human opioid ORL1 membranes, FlashPlate, [125I]-Nociceptin; conditions: compound at 10 μM; [125I]-Nociceptin
T9 construct: purchased Perkin Elmer Biosignal
Procedure, shortened: as §1

[2] = target: T10, Human melanin-concentrating hormone (MCH1) (Homo sapiens, UniProt Q99705); test: Radioligand binding, human melanin-concentrating hormone MCH1 membranes, FlashPlate, [125I]-S36057; conditions: compound at 10 μM; [125I]-S36057
T10 construct: purchased Perkin Elmer Biosignal
Procedure, shortened: as §1

Mouse urotensin (mUR2) = target: T11, Mouse urotensin (mUR2) (Mus musculus, UniProt Q8VIH9); test: Radioligand binding, mouse urotensin mUR2 membranes, FlashPlate, [125I]-Urotensin II; conditions: compound at 10 μM; [125I]-Urotensin II
T11 construct: purchased Perkin Elmer Biosignal
T11 sequence (Q8VIH9 1-385): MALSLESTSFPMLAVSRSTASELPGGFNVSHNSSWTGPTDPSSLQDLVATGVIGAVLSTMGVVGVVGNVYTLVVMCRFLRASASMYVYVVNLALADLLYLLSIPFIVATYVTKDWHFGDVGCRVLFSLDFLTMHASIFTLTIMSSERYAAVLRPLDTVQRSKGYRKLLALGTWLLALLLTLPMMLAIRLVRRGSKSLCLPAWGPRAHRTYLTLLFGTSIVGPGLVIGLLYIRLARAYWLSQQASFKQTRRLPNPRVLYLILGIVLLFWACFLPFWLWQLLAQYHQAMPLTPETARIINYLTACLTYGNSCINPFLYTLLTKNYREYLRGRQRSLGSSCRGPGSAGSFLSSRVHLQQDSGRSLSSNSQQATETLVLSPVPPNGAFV
Procedure, shortened: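 Cloned mouse urotensin (mUR2) receptor membranes from Perkin Elmer Biosignal were immobilized in FlashPlate microplates using a proprietary coating. Each well got 19.5 μl buffer, then 0.5 μl of DMSO, reference ligand, or compound. Adding 5 μl of [125I]-Urotensin II, diluted to 5× final concentration in binding buffer, started binding. Plates were sealed with TopSeal-A and incubated 1 hour at room temperature in the dark. Wells were counted for 30 seconds each on a TopCount after a 60-second delay, and percentage inhibition was calculated.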

T10 sequence (Q99705 whole entry): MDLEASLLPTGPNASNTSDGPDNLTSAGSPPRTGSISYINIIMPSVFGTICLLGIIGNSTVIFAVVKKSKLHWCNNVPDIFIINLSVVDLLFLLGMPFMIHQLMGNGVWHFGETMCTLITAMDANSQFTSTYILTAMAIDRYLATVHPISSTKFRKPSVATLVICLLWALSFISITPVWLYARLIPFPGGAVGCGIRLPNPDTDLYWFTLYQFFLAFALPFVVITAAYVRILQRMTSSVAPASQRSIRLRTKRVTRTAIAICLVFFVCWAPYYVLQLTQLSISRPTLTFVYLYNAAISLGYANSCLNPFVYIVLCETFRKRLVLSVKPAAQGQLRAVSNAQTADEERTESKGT
T9 sequence (P41146 whole entry): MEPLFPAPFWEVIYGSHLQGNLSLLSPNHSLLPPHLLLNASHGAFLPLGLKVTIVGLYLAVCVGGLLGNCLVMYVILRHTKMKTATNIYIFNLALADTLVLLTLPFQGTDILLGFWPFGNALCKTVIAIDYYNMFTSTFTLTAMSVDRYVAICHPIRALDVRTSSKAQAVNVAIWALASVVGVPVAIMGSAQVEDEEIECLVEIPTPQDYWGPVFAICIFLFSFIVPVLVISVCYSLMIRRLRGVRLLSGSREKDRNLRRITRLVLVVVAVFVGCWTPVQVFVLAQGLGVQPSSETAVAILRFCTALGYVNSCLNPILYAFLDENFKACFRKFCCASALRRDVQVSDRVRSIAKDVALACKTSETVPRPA
T3 sequence (P41145 whole entry): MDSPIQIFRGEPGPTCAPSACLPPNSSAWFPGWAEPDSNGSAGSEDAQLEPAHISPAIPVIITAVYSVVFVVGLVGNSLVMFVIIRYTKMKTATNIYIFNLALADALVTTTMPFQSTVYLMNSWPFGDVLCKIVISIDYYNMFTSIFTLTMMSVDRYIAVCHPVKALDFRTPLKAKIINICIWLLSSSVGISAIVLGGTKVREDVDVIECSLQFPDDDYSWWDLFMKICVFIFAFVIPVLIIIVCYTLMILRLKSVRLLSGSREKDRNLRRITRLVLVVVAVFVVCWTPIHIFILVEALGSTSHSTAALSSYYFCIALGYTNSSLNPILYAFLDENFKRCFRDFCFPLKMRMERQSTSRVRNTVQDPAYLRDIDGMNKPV
T7 sequence (P35372 whole entry): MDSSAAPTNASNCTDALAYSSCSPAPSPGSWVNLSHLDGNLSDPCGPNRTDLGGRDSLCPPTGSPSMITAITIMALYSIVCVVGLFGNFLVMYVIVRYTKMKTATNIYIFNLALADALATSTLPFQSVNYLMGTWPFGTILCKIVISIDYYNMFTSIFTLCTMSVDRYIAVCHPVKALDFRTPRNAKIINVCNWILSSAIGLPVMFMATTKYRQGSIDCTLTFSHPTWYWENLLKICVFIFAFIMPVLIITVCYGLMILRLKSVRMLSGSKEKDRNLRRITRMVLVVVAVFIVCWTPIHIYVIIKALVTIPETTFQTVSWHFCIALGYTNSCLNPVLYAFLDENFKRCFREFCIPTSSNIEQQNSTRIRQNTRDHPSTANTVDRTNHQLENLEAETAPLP
T6 sequence (P25103 whole entry): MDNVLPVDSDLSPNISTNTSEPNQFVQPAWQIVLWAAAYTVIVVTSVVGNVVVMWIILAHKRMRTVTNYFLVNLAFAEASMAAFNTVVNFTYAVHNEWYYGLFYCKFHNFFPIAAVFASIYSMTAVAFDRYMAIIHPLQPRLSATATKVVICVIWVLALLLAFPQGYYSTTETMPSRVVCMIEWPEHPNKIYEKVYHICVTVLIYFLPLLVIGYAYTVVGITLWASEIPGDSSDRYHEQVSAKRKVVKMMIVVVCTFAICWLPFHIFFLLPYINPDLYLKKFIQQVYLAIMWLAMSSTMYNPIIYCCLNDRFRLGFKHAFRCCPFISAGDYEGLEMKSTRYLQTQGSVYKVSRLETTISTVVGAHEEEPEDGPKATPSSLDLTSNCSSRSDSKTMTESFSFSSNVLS
T1 sequence (P33032 whole entry): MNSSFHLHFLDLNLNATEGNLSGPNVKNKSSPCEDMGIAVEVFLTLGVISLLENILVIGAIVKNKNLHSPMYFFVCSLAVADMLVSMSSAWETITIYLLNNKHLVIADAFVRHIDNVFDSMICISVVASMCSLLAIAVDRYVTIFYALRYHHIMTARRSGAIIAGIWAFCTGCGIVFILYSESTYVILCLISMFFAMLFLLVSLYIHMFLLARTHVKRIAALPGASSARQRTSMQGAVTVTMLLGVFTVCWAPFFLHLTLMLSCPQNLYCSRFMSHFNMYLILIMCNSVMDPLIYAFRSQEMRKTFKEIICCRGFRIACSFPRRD
T2 sequence (P32245 whole entry): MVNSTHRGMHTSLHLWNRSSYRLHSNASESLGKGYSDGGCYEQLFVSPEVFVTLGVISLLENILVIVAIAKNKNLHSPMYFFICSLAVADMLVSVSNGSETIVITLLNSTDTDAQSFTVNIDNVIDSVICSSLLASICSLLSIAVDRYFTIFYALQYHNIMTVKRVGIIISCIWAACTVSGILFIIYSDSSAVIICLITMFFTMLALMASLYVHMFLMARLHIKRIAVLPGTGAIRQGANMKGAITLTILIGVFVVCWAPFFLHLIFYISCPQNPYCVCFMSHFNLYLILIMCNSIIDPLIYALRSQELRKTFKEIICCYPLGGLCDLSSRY
T5 sequence (P41968 whole entry): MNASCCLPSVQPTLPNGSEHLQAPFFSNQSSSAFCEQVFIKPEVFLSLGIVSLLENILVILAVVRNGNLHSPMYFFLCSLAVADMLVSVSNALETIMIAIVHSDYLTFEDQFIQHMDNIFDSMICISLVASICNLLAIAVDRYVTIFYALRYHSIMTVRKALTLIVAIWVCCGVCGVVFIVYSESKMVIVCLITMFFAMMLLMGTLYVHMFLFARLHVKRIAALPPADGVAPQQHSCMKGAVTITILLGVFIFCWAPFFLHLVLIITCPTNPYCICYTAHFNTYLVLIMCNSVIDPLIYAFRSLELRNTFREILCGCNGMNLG
T8 sequence (P41143 whole entry): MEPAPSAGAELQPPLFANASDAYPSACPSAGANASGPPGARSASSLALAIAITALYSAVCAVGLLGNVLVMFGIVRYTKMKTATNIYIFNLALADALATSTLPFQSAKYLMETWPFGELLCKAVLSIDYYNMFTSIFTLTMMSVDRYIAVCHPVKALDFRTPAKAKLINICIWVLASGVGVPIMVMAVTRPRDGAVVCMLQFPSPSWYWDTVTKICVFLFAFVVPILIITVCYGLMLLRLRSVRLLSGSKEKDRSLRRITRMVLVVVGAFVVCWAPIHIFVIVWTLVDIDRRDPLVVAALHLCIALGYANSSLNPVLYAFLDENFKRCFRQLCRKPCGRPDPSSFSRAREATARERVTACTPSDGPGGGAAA

| Compound | A5 radioligand binding, percentage inhibition (Human melanocortin (MC5)) | A4 radioligand binding, percentage inhibition (Human Melanocortin (MC4)) | A2 radioligand binding, percentage inhibition (Human κ-Opioid (KOP)) | A9 radioligand binding, percentage inhibition [1] | A3 radioligand binding, percentage inhibition (Human Melanocortin (MC3)) | A8 radioligand binding, percentage inhibition (Human neurokinin (NK1)) | A7 radioligand binding, percentage inhibition (Human μ-opioid (MOP)) | A1 radioligand binding, percentage inhibition (Human δ-opioid (DOP)) | A10 radioligand binding, percentage inhibition (Human opioid (ORL1)) | A6 radioligand binding, percentage inhibition [2] | A11 radioligand binding, percentage inhibition (Mouse urotensin (mUR2)) |
| --- | --- | --- | --- | --- | --- | --- | --- | --- | --- | --- | --- |
| COC[C@H]1OC(OCc2ccccc2)[C@H](NC(=O)CCCN)[C@@H](OCc2cccc(O)c2)[C@@H]1O (stereo partly shown) [compound 136] | − (“−” indicates less than 50% inhibition at 10 μM) | − (“−” indicates less than 50% inhibition at 10 μM) | − (“−” indicates less than 50% inhibition at 10 μM) | − (“−” indicates less than 50% inhibition at 10 μM) | − (“−” indicates less than 50% inhibition at 10 μM) | + (“+” indicates greater than 50% inhibition at 10 μM) | − (“−” indicates less than 50% inhibition at 10 μM) | − (“−” indicates less than 50% inhibition at 10 μM) | − (“−” indicates less than 50% inhibition at 10 μM) | − (“−” indicates less than 50% inhibition at 10 μM) | − (“−” indicates less than 50% inhibition at 10 μM) |
| COC[C@H]1OC(OCc2ccc(Cl)cc2)[C@H](NC(=O)CNC(=N)N)[C@@H](OCc2cccc(O)c2)[C@@H]1O (stereo partly shown) [compound 137] | + (“+” indicates greater than 50% inhibition at 10 μM) | − (“−” indicates less than 50% inhibition at 10 μM) | − (“−” indicates less than 50% inhibition at 10 μM) | − (“−” indicates less than 50% inhibition at 10 μM) | − (“−” indicates less than 50% inhibition at 10 μM) | − (“−” indicates less than 50% inhibition at 10 μM) | + (“+” indicates greater than 50% inhibition at 10 μM) | − (“−” indicates less than 50% inhibition at 10 μM) | − (“−” indicates less than 50% inhibition at 10 μM) | − (“−” indicates less than 50% inhibition at 10 μM) | − (“−” indicates less than 50% inhibition at 10 μM) |
| COC[C@H]1OC(OCc2ccc(Cl)cc2)[C@H](NC(=O)CCNC(=N)N)[C@@H](OCc2cccc(O)c2)[C@@H]1O (stereo partly shown) [compound 138] | − (“−” indicates less than 50% inhibition at 10 μM) | − (“−” indicates less than 50% inhibition at 10 μM) | − (“−” indicates less than 50% inhibition at 10 μM) | − (“−” indicates less than 50% inhibition at 10 μM) | − (“−” indicates less than 50% inhibition at 10 μM) | − (“−” indicates less than 50% inhibition at 10 μM) | + (“+” indicates greater than 50% inhibition at 10 μM) | + (“+” indicates greater than 50% inhibition at 10 μM) | − (“−” indicates less than 50% inhibition at 10 μM) | − (“−” indicates less than 50% inhibition at 10 μM) | − (“−” indicates less than 50% inhibition at 10 μM) |
| COC[C@H]1OC(OCc2ccc(Cl)cc2)[C@H](NC(=O)CCCNC(=N)N)[C@@H](OCc2cccc(O)c2)[C@@H]1O (stereo partly shown) [compound 139] | − (“−” indicates less than 50% inhibition at 10 μM) | − (“−” indicates less than 50% inhibition at 10 μM) | − (“−” indicates less than 50% inhibition at 10 μM) | − (“−” indicates less than 50% inhibition at 10 μM) | − (“−” indicates less than 50% inhibition at 10 μM) | − (“−” indicates less than 50% inhibition at 10 μM) | + (“+” indicates greater than 50% inhibition at 10 μM) | − (“−” indicates less than 50% inhibition at 10 μM) | − (“−” indicates less than 50% inhibition at 10 μM) | + (“+” indicates greater than 50% inhibition at 10 μM) | − (“−” indicates less than 50% inhibition at 10 μM) |
| COC[C@H]1OC(OCCc2ccccc2)[C@H](NC(=O)CCCN)[C@@H](OCc2cccc(O)c2)[C@@H]1O (stereo partly shown) [compound 140] | − (“−” indicates less than 50% inhibition at 10 μM) | − (“−” indicates less than 50% inhibition at 10 μM) | − (“−” indicates less than 50% inhibition at 10 μM) | − (“−” indicates less than 50% inhibition at 10 μM) | − (“−” indicates less than 50% inhibition at 10 μM) | + (“+” indicates greater than 50% inhibition at 10 μM) | − (“−” indicates less than 50% inhibition at 10 μM) | − (“−” indicates less than 50% inhibition at 10 μM) | − (“−” indicates less than 50% inhibition at 10 μM) | − (“−” indicates less than 50% inhibition at 10 μM) | − (“−” indicates less than 50% inhibition at 10 μM) |
